# Measured values reported in US20260183223A1, “A PERSONAL CARE COMPOSITION” (Conopco, Inc., d/b/a UNILEVER, priority 2022, published 2026).
# Tested on: collagen type III alpha I chain (COL3A1) gene
# Experiment: Gene expression test: COL3A1 by RT-PCR in normal human dermal fibroblasts
# Assay type: cell-based
# Conditions: normal human dermal fibroblasts (NHDF), 48 hours incubation with actives in medium; normalized to ACTB; fold change relative to blank control; actives in wt % of medium
# Experimental: The normal human dermal fibroblasts (NHDF, Biocell, Xi′an, China, Cat: Fb20081902) were incubated in medium together with or without actives for 48 hours. After incubation, the total RNA for each […] was extracted using RNAex Pro reagent (Accurate Biotechnology, Cat: AG21102) according to manufacturer's protocol.
# The extracted RNA was quantified using Nanodrop 2000 spectrometer (Thermo Fisher Scientific, Waltham, MA, US) and reverse transcribed to generate the template cDNA using the Evo M-MLV RT Premix for qPCR (Accurate Biotechnology, Cat: AG11706) according to manufacturer's protocol. Amplification of the gene encoding collagen type III alpha I chain (COL3A1) gene was performed with RT-PCR reagent (SYBR® Green Premix Pro Taq HS qPCR Kit, Accurate Biotechnology, Cat: AG11701) on the ABI Vii 7 Real-Time PCR Systems (Applied Biosystems, Thermo fisher scientific, Carlsbad, CA, USA). The beta-actin (ACTB) gene was selected as the housekeeping gene and all data on relative expression of the target genes was normalized to ACTB gene. The fold changes in expression were calculated relative to the blank control (medium having no active).
substance,measurement,value
Lysine carboxymethyl cysteinate,Fold change of expression of COL3A1,1.1
